According to patent US11603368B2, “Fused thiophene derivatives and their uses” (ENYO PHARMA, priority 2018, dated 2023):
pIC50: −log10 of the molar value.

Key:
[1] = target: T1, CISD2 Gene Product (NAF-1) (Homo sapiens, UniProt Q8N5K1); test: Stability of Fe—S cluster binding of purified NEET protein NAF-1; format: biochemical; conditions: for Time (in minutes) to achieve 50% loss of bound cluster (Absorbance 458 nm), CISD2 Gene Product (NAF-1) / Residual cluster bound at end of experiment (Percentage Absorbance 458 nm at time zero), CISD2 Gene Product (NAF-1): pH 6, 37° C., 1:3 protein:compound molar ratio; for Time (in minutes) to achieve 50% loss of bound cluster (Absorbance 458 nm), CISD2 Gene Product (NAF-1): 6 μM compound, run time 500 minutes, Vehicle Control 310; for Residual cluster bound at end of experiment (Percentage Absorbance 458 nm at time zero), CISD2 Gene Product (NAF-1): end of 500 minutes, Vehicle Control 3%; for stabiliser or destabiliser of Fe—S cluster binding, CISD2 Gene Product (NAF-1): time to 50% Fe—S cluster bound loss changed by more than 25% vs Control sample, at the concentrations tested
T1 sequence (Q8N5K1 57-135 limits assumed): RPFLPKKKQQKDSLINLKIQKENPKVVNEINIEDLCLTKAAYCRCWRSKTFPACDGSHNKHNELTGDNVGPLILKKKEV
Method: (§1) The modulator effect on the NEET proteins encoded by human CISD1, CISD2, and CISD3 genes by the compounds of the invention has been tested and is reported below. Particularly, the biochemical function of the NEET proteins is measured by the stability of Fe—S cluster binding of the purified NEET proteins.
(§2) The Fe—S cluster binding capacity of NEET proteins is known to be coordinated by four amino-acids in a stretch of 16 (three Cysteine and one Histidine). As the lability of the Fe—S cluster of NEET proteins is sensitive to the environment, cluster stability measurements are one of the measures of interactions of NEET proteins with small molecules and compounds. NEET protein/2Fe-2S cluster stability can be assessed by monitoring the decay in absorbance of its characteristic 458-nm peak (characteristic of the oxidized 2Fe-2S cluster) over time. Each NEET protein (mitoNEET, NAF-1 and Miner 2) was tested for its Fe—S binding in the absence or presence of a compound according to the invention (see table 2 below). The rate of cluster release (time in minutes to achieve 50% loss of bound Fe—S cluster) was compared for each NEET protein in the presence of one of the compounds of the invention (in a 1:3 protein:compound molar ratio) relative to each protein alone.
(§3) At pH 6, all the three NEET proteins (mitoNEET, NAF-1 and Miner 2) have a characteristic rate of loss of the bound Fe—S cluster that can be measured by the decrease of absorbance at wavelength 458 nm over time, using a spectrophotometer. Thus, Bis-Tris buffer (100 mM Bis-Tris pH6, 100 mM Nacl) was used at pH 6 to dilute either DMSO (Blank sample: Bis-Tris Buffer pH 6, 6 μM DMSO), DMSO and one of the three NEET proteins (Control sample: Bis-Tris Buffer pH 6, 6 μM DMSO, 2 μM purified NEET protein) or DMSO, one of the three NEET proteins and a compound of the invention (Test sample: Bis-Tris Buffer pH 6, 6 μM DMSO, […], 6 μM compound of the invention).
(§4) A reaction mix containing DMSO diluted in the Bis-Tris Buffer with or without a compound of the invention was prepared. The purified NEET protein was the last component added to the reaction mix which was then aliquoted into 4 replicates in 96 wells plates. The absorbance at wavelength 458 nm was taken at 5 minutes intervals at 37° C. with a spectrofluorimeter. The assay run time for CISD2 gene product (NAF-1) was 500 minutes and 180 minutes for both the CISD 1 gene product (mitoNEET) and the CISD3 gene product (Miner 2).
(§5) In addition to time monitoring, residual bound Fe—S cluster to NEET protein was measured at the final point of the spectrometry assay for each Test sample and compared to the Control sample data (in parenthesis table 2). This residual binding is measured by the differential percentage between the absorbance 458 nm at time zero and the absorbance 458 nm at the end of the experiment (i.e. respectively 500 or 180 minutes as described hereabove), showing the percentage of NEET protein still able to bind a Fe—S cluster.
(§6) Analysis of the absorbance enables the time for which 50% loss of bound Fe—S cluster is reached (i.e. a 50% absorbance decrease at 458 nm) for each Test sample and each Control sample (in parenthesis table 2) to be determined. The data are then compared to determine whether the compound of the invention stabilizes or destabilizes the NEET protein/Fe—S cluster binding.

[2] = target: T2, CISD3 Gene Product (Miner2) (Homo sapiens, UniProt P0C7P0); test: Stability of Fe—S cluster binding of purified NEET protein Miner2; format: biochemical; conditions: for Time (in minutes) to achieve 50% loss of bound cluster (Absorbance 458 nm), CISD3 Gene Product (Miner2) / Residual cluster bound at end of experiment (Percentage Absorbance 458 nm at time zero), CISD3 Gene Product (DMSO 11%): pH 6, 37° C., 1:3 protein:compound molar ratio; for Time (in minutes) to achieve 50% loss of bound cluster (Absorbance 458 nm), CISD3 Gene Product (Miner2): 6 μM compound, run time 180 minutes, Vehicle Control 60; for Residual cluster bound at end of experiment (Percentage Absorbance 458 nm at time zero), CISD3 Gene Product (DMSO 11%): end of 180 minutes, Vehicle Control 11%; for stabiliser or destabiliser of Fe—S cluster binding, CISD3 Gene Product (Miner2): time to 50% Fe—S cluster bound loss changed by more than 25% vs Control sample, at the concentrations tested
T2 sequence (P0C7P0 15-127): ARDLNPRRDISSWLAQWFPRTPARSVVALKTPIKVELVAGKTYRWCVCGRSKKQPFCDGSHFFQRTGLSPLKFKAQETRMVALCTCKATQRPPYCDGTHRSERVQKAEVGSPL
Method: as §1, §2, §3, §4, §5, §6

[3] = tested on: H1N1 (influenza A/New Caledonia/20/99); test: Antiviral effect on A549 cells infected with H1N1; format: cell-based, H1N1 A/New Caledonia/20/99 virus; conditions: Human A549 cells, MOI of 0.1, 48 h post-infection, MUNANA hydrolysis readout
Method: The antiviral effect of the compounds of the invention has been tested on A549 cell lines infected with H1N1 (influenza A/New Caledonia/20/99).
Human A549 cells (80,000 cells/well in a 96 well plate) were treated with a range of concentration of test molecules and immediately infected by H1N1 A/New Caledonia/20/99 virus (clinical isolate) at MOI of 0.1 in DMEM/1% Penicillin/streptomycin supplemented with 0.25 μg/ml TPCK trypsin (Sigma) and incubated at 37° C. in 5% CO2. 48 h post-infection, supernatants (25 μl) were collected and transferred into a 96-well black flat-bottom plate, mixed with 25 μl PBS with Ca++/Mg++(Thermo Fisher) and 50 μl of 2′-(4-Methylumbelliferyl)-α-D-N-acetylneuraminic acid sodium salt hydrate stock-solution (20 μM, MUNANA, Sigma). Plates were incubated 1 h at 37° C. and reaction is stopped by adding 100 μl of Stop Solution (glycine 0.1 M pH10.7/25% ethanol). The amount of fluorescent product released by MUNANA hydrolysis (4-MU) was measured in a Tecan spectrophotometer with excitation and emission wavelengths of 365 and 450 nm respectively.

[4] = target: T3, CISD1 Gene Product (mitoNEET) (Homo sapiens, UniProt Q9NZ45); test: Stability of Fe—S cluster binding of purified NEET protein mitoNEET; format: biochemical; conditions: for Time (in minutes) to achieve 50% loss of bound cluster (Absorbance 458 nm), CISD1 Gene Product (mitoNEET) / Residual cluster bound at end of experiment (Percentage Absorbance 458 nm at time zero), CISD1 Gene Product (mitoNEET): pH 6, 37° C., 1:3 protein:compound molar ratio; for Time (in minutes) to achieve 50% loss of bound cluster (Absorbance 458 nm), CISD1 Gene Product (mitoNEET): 6 μM compound, run time 180 minutes, Vehicle Control 80; for Residual cluster bound at end of experiment (Percentage Absorbance 458 nm at time zero), CISD1 Gene Product (mitoNEET): end of 180 minutes, Vehicle Control 16%; for stabiliser or destabiliser of Fe—S cluster binding, CISD1 Gene Product (mitoNEET): time to 50% Fe—S cluster bound loss changed by more than 25% vs Control sample, at the concentrations tested
T3 sequence (Q9NZ45 33-108 limits assumed): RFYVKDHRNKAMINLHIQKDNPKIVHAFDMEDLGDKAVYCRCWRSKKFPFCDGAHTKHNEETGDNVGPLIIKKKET
Method: as §1, §2, §3, §4, §5, §6

[5] = Influenza A virus, H1N1, A549, 48 h

Row | Compound | Time (in minutes) to achieve 50% loss of bound cluster (Absorbance 458 nm), CISD2 Gene Product (NAF-1) [1] | Residual cluster bound at end of experiment (Percentage Absorbance 458 nm at time zero), CISD2 Gene Product (NAF-1) [1] | stabiliser or destabiliser of Fe—S cluster binding, CISD2 Gene Product (NAF-1) [1] | Time (in minutes) to achieve 50% loss of bound cluster (Absorbance 458 nm), CISD3 Gene Product (Miner2) [2] | Residual cluster bound at end of experiment (Percentage Absorbance 458 nm at time zero), CISD3 Gene Product (DMSO 11%) [2] | pIC50 [3] | Time (in minutes) to achieve 50% loss of bound cluster (Absorbance 458 nm), CISD1 Gene Product (mitoNEET) [4] | Residual cluster bound at end of experiment (Percentage Absorbance 458 nm at time zero), CISD1 Gene Product (mitoNEET) [4] | stabiliser or destabiliser of Fe—S cluster binding, CISD3 Gene Product (Miner2) [2] | pIC50 [3, 5] | stabiliser or destabiliser of Fe—S cluster binding, CISD1 Gene Product (mitoNEET) [4]
1 | O=C(Nc1sc2c(c1C(=O)O)CCC(c1ccccc1)C2)c1ccccc1 (stereo not drawn) [#46] | 90 min | 14% | destabilisers | 60 min | 13% | 6.82 | 80 min | 18% |  |  | 
2 | O=C(Nc1sc2c(c1C(=O)O)CCN(c1ccccc1)C2)c1ccccc1 [#52] | during 500 minutes | 50% | Stabilisers | during 180 minutes | 54% |  | 100 min | 47% | Stabilisers | 7.05 | stabilisers
3 | COc1ccc(C(=O)Nc2sc3c(c2C(=O)O)CCN(c2ccc(F)cc2C)C3)cc1OC [#54] | 305 min | 31% |  | 85 min | 41% |  | 105 min | 35% | Stabilisers | 7.22 | stabilisers
4 | CC(C)(C)C1CCc2c(sc(NC(=O)c3ccccc3)c2C(=O)O)C1 (stereo not drawn) [#71] | 125 min | 15% | destabilisers | 70 min | 42% | 6.80 | 100 min | 34% |  |  | stabilisers
